Read-outs that look alike come from different tables or passages of the source.
Biological target: T1, yeast HSP90 (Saccharomyces cerevisiae, UniProt P02829)
T1 construct: made in house; host or cells: E. coli
Assay: Malachite green HSP90 ATPase assay
Format: biochemical
Source text: Two methods have been developed to measure the intrinsic ATPase activity of HSP90, using yeast HSP90 as a model system. The first method utilises a regenerating coupled enzyme assay. The second assay, based on the use of malachite green for the measurement of inorganic phosphate, was designed for high throughput screening (HTS) to identify novel HSP90 inhibitor drug candidates.
Colorimetric assays for the determination of phosphate, based on the formation of a phosphomolybdate complex, can be carried out in a few steps with inexpensive reagents and are well suited to the automation required for high throughput screening (see, e.g., Cogan et al., 1999). Enzymes that release inorganic phosphate are assayed using the reaction of the cationic dye, malachite green, with the a complex formed by a reaction of the inorganic phosphate with molybdate to generate a blue-green colour with an absorbance maximum at 610 nm (see, e.g., Baykov et al., 1988; Harder et al., 1994; Maehama et al., 2000). The method has been used in both high throughput (see, e.g., Rumsfeld et al., 2000) and ultra-high throughput screening formats (see, e.g., Layery et al., 2001) for a variety of non-HSP90 ATPases. However, this method is complicated by the non-enzymatic hydrolysis of ATP in the presence of acidic malachite green reagent, causing an increase in colour (see, e.g., Chan et al., 1986; Henkel et al., 1988). This process is mediated by molybdate and can be overcome by the addition of sodium citrate immediately after the reagent (see, e.g., Lanzetta et al., 1979; Schirmer et al., 1998; Baginski et al., 1975). This modification has been adapted to the 96-well microtitre plate assay previously described for other ATPases (see, e.g., Lanzetta et al., 1979) to produce the following protocol for HSP90 ATPase, which is suitable for high throughput screening.
Chemicals are of the highest purity commercially available and all aqueous solutions are made up in AR water. Because of the need to minimise contamination with inorganic phosphate, precautions should be taken with solutions and apparatus used in the assays. Glassware and pH meters are rinsed with double distilled or deionised water before use and, wherever possible, plastic ware should be used. Gloves are worn for all procedures. • (1) Immulon 96-well (Thermo Labsystems, Basingstoke, UK) or Cliniplate 384-well flat-bottomed polystyrene multiwell plates (Thermo Labsystems). • (2) Assay buffer of (a) 100 mM Tris-HCl, pH 7.4, (b) 20 mM KCl, (c) 6 mM MgCl2. Stored at 4° C. • (3) 0.0812% (w/v) malachite green (M 9636, Sigma Aldrich Ltd., Poole, UK). Stored at room temperature. • (4) 2.32% (w/v) polyvinyl alcohol USP (P 1097, Sigma Aldrich Ltd, Poole, UK) in boiling water (see Comment 1), allowed to cool, and stored at room temperature. • (5) 5.72% (w/v) ammonium molybdate in 6 M hydrochloric acid. Stored at room temperature. • (6) 34% (w/v) sodium citrate. Stored at room temperature. • (7) ATP, disodium salt, special quality (519979, Boehringer Mannheim, Lewes, UK). Stored at 4° C. • (8) E. coli expressed yeast HSP90 protein, purified >95% (see, e.g., Panaretou et al., 1998) and stored at −80° C. as 10 μl aliquots containing 0.5 mg of protein. Method
The following protocol was used: • (1) On the day of use, prepare the malachite green reagent from the stock solutions. Mix (a) 2 parts of malachite green, (b) 1 part of polyvinyl alcohol, (c) 1 part of ammonium molybdate, and (d) 2 parts of water. Initially, the reagent is a dark brown colour, but after standing at room temperature for about 2 h, this becomes a golden yellow colour and is ready for use. • (2) For the high throughput screening assays, the test compounds are dissolved at 200 μM in 2.0% DMSO and contained in daughter plates derived from the chemical libraries. Transfer 5 μl of each sample from the daughter plate to each well of the assay plate using automated equipment (see Comment 3). This represents a final concentration in the well of 40 μM.

[1] = malachite green assay, 1 mM ATP, ±SD if n=3–5, read-out: HSP90 ATPase inhibition IC50
[2] = activity class, read-out: Hsp90 IC50

T1 sequence (P02829 whole entry, looked up): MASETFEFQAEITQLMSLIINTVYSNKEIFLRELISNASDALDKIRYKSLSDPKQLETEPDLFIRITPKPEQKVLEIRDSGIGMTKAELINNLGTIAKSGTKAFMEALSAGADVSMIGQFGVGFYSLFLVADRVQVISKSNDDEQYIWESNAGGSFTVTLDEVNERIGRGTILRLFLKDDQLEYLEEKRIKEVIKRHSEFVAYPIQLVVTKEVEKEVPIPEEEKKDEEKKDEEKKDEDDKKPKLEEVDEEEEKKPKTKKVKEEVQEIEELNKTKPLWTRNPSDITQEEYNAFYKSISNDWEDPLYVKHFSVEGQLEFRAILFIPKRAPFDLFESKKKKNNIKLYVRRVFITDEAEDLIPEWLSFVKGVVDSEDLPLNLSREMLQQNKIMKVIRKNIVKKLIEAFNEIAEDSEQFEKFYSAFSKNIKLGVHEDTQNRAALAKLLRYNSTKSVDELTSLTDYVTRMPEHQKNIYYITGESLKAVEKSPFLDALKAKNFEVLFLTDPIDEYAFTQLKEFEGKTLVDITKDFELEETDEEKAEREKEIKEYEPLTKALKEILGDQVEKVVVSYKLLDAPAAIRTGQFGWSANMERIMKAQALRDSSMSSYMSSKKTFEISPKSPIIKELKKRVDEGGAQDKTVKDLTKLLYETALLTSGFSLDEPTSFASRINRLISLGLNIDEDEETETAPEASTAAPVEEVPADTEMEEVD

Row | IC50 [2] | SMILES | further results
1 | < 10 µM | CCc1cc(-c2n[nH]cc2-c2ccc(OC)c(OC)c2)c(O)cc1O [Example 50] | 
2 | 10 to 100 µM | COc1ccc(-c2c[nH]nc2-c2ccc(O)cc2O)cc1OC [Example 51] | 
3 | < 10 µM | COc1ccc(-c2c[nH]nc2-c2cc(Cl)c(O)cc2O)cc1OC [Example 52] | 
4 | < 10 µM | Oc1cc(O)c(-c2n[nH]cc2-c2ccccc2)cc1Cl [Example 53] | 
5 | < 10 µM | CCc1cc(-c2n[nH]cc2-c2ccccc2)c(O)cc1O [Example 54] | 
6 | < 10 µM | Oc1cc(O)c(-c2n[nH]cc2-c2ccc(Br)cc2)cc1Cl [Example 57] | 
7 | < 10 µM | Oc1cc(O)c(-c2n[nH]cc2-c2ccccc2Br)cc1Cl [Example 60] | 
8 | < 10 µM | Oc1cc(O)c(-c2n[nH]cc2-c2ccc(-c3ccc(F)cc3)cc2)cc1Cl [Example 62] | 
9 | < 10 µM | Oc1cc(O)c(-c2n[nH]cc2-c2ccccc2F)cc1Cl [Example 65] | 
10 | < 10 µM | Oc1cc(O)c(-c2n[nH]cc2-c2cccc(Br)c2)cc1Cl [Example 66] | 
11 | < 10 µM | Oc1cc(O)c(-c2n[nH]cc2-c2cccc(OCCF)c2)cc1Cl [Example 67] | 
12 | 10 to 100 µM | COc1ccc(-c2cccc(-c3c[nH]nc3-c3cc(Cl)c(O)cc3O)c2)cc1OC [Example 68] | 
13 | 10 to 100 µM | COc1ccccc1-c1c[nH]nc1-c1cc(Cl)c(O)cc1O [Example 71] | 
14 | < 10 µM | CCOc1cccc(-c2ccc(-c3c[nH]nc3-c3cc(Cl)c(O)cc3O)cc2)c1 [Example 72] | 
15 | < 10 µM | N#CCCCOc1cccc(-c2c[nH]nc2-c2cc(Cl)c(O)cc2O)c1 [Example 73] | 
16 | < 10 µM | N#CCCCOc1ccccc1-c1c[nH]nc1-c1cc(Cl)c(O)cc1O [Example 74] | 
17 | < 10 µM | O=C(O)CCCOc1ccc(-c2c[nH]nc2-c2cc(Cl)c(O)cc2O)cc1 [Example 75] | 
18 | < 10 µM | Oc1ccc(-c2c[nH]nc2-c2cc(Cl)c(O)cc2O)cc1 [Example 76] | 
19 | < 10 µM | COc1cccc(-c2c[nH]nc2-c2cc(Cl)c(O)cc2O)c1 [Example 77] | 
20 | < 10 µM | CCc1cc(-c2n[nH]cc2-c2ccc(Br)cc2)c(O)cc1O [Example 79] | 
21 | 10 to 100 µM | CCc1cc(-c2n[nH]cc2-c2ccc([N+](=O)[O-])cc2)c(O)cc1OC [Example 80] | 
22 | < 10 µM | CCc1cc(-c2n[nH]cc2-c2ccc3c(c2)OCCO3)c(O)cc1O [Example 83] | 
23 | < 10 µM | CCc1cc(-c2n[nH]cc2-c2ccc3c(c2)OCO3)c(O)cc1O [Example 87] | 
24 | 10 to 100 µM | CCc1cc(-c2n[nH]cc2-c2cscn2)c(O)cc1O [Example 91] | 
25 | < 10 µM | COc1ccc(-c2c(-c3cc(-c4ccccc4)c(O)cc3O)n[nH]c2C)cc1 [Example 94] | 
26 | 10 to 100 µM | CCc1cc(-c2n[nH]cc2-c2ncc(C)s2)c(O)cc1O [Example 101] | 
27 | < 10 µM | COc1ccc(-c2c(-c3cc(Cc4ccccc4)c(O)cc3O)n[nH]c2C)cc1 [Example 104, 4-benzyl-6-[4-(4-methoxy-phenyl)-5-methyl-1H-pyrazol-3-yl]-benzene-1,3-diol] | 

More lines, now with the values behind:

Row | SMILES | IC50 [2] | further results
28 | CCCc1cc(-c2n[nH]c(C)c2-c2ccc3c(c2)OCCO3)c(O)cc1O [CCT018156] |  | IC50 [1]: 52.8 ± 12 µM
29 | CCCc1cc(-c2n[nH]c(C)c2-c2ccc3c(c2)OCO3)c(O)cc1O [CCT018158] |  | IC50 [1]: 19 µM
30 | CCc1cc(-c2n[nH]c(C)c2-c2ccc3c(c2)OCCO3)c(O)cc1O [Example 49] |  | IC50 (Hsp90 IC50, activity class): < 10 µM
31 | Oc1ccc(-c2[nH]ncc2-c2ccccc2)c(O)c1 [Example 55] | 10 to 100 µM | 
32 | Oc1ccc(-c2[nH]ncc2-c2ccc(Br)cc2)c(O)c1 [Example 56] | > 10 µM | 
33 | Cc1[nH]nc(-c2cc(Cl)c(O)cc2O)c1-c1ccc(Br)cc1 [Example 58] | < 10 µM | 
34 | Cc1[nH]nc(-c2ccc(O)cc2O)c1-c1ccccc1 [Example 59] | > 10 µM | 
35 | N#CCCCOc1ccc(-c2cn[nH]c2-c2cc(Cl)c(O)cc2O)cc1 [Example 61] | < 10 µM | 
36 | Oc1cc(O)c(-c2n[nH]cc2-c2ccc3c(c2)OCCO3)cc1Cl [Example 63] |  | IC50 (Hsp90 IC50, activity class): < 10 µM
37 | COc1ccc(-c2c(-c3cc(Cl)c(O)cc3O)n[nH]c2C)cc1 [Example 64] |  | IC50 (Hsp90 IC50, activity class): < 10 µM
38 | Cc1[nH]nc(-c2cc(Cl)c(O)cc2O)c1-c1ccccc1Br [Example 69] | 10 to 100 µM | 
39 | Cc1n[nH]c(-c2cc(Cl)c(O)cc2O)c1-c1ccc(OCCCC#N)cc1 [Example 70] | < 10 µM | 
40 | Cc1[nH]nc(-c2cc(Cl)c(O)cc2O)c1-c1ccccc1 [Example 78] | < 10 µM | 
41 | Cc1[nH]nc(-c2ccc(O)cc2O)c1-c1ccc2c(c1)OCCO2 [Example 81] |  | IC50 (Hsp90 IC50, activity class): 10 to 100 µM
42 | CCc1cc(-c2n[nH]c(C)c2-c2nc3ccccc3n2C)c(O)cc1O [Example 82] | 10 to 100 µM | 
43 | CCc1cc(-c2n[nH]c(C(F)(F)F)c2-c2nc3ccccc3s2)c(O)cc1O [Example 84] | 10 to 100 µM | 
44 | Cc1[nH]nc(-c2ccc(O)cc2O)c1-c1ccc2c(c1)OCCCO2 [Example 86] | > 10 µM | 
45 | CCCc1cc(-c2n[nH]c(C)c2-c2ccc3c(c2)OCCO3)c(O)cc1O [Example 88] | 10 to 100 µM | 

Row | SMILES | IC50 [2] | further results
46 | Cc1nc(-c2c[nH]nc2-c2cc(C)c(O)cc2O)cs1 [Example 90] | 10 to 100 µM | 
47 | COc1ccc(-c2c(-c3ccc(O)cc3O)n[nH]c2C)cc1 [Example 92] |  | IC50 (Hsp90 IC50, activity class): 10 to 100 µM
48 | COc1ccc(-c2c(-c3cc(Br)c(O)cc3O)n[nH]c2C)cc1 [Example 93, 4-Bromo-6-[4-(4-methoxy-phenyl)-5-methyl-1H-pyrazol-3-yl]-benzene-1,3-diol] |  | IC50 (Hsp90 IC50, activity class): < 10 µM
49 | COc1ccc(-c2c(-c3cc(CCc4ccccc4)c(O)cc3O)n[nH]c2C)cc1 [Example 95] | < 10 µM | 
50 | CCCc1cc(-c2[nH]ncc2-c2ccc(C(=O)OCC)o2)c(O)cc1O [Example 97] | 10 to 100 µM | 
51 | CCCc1cc(-c2n[nH]c(C)c2-c2ccc(C(=O)OCC)o2)c(O)cc1O [Example 98] | 10 to 100 µM | 
52 | CCc1cc(-c2[nH]nc(CCC(=O)O)c2-c2nc3ccccc3n2C)c(O)cc1O [Example 99] | 10 to 100 µM | 
53 | CCCc1cc(-c2n[nH]c(C)c2-c2nc3ccccc3s2)c(O)cc1O [Example 100] | 10 to 100 µM | 
54 | CCc1cc(-c2n[nH]c(C(=O)O)c2-c2ncc(C)s2)c(O)cc1O [Example 102] | 10 to 100 µM | 
55 | CCc1cc(-c2n[nH]c(C(F)(F)F)c2-c2ccccc2)c(O)cc1O [Example 103] | 10 to 100 µM | 
56 | Cc1c(CC(=O)NCc2ccc(-c3c[nH]nc3-c3cc(Cl)c(O)cc3O)cc2)c(=O)oc2cc(N)c(S(=O)(=O)O)cc12 [Example 105] | < 10 µM | 
57 | O=C(NCc1ccc(-c2c[nH]nc2-c2cc(Cl)c(O)cc2O)cc1)c1ccc(-c2c3ccc(=O)cc-3oc3cc(O)ccc23)c(C(=O)O)c1 [Example 106, N-{4-[3-(5-Chloro-2,4-dihydroxy-phenyl)-1H-pyrazol-4-yl]-benzyl}-6-(6-hydroxy-3-oxo-3H-xanthen-9-yl)-isophthalamic acid] | < 10 µM | 
58 | Cc1[nH]nc(-c2cc(Cl)ccc2O)c1-c1ccc2c(c1)OCCO2 [Example 107] | 10 to 100 µM | 
59 | Cc1[nH]nc(-c2cc(F)ccc2O)c1-c1ccc2c(c1)OCCO2 [Example 108] | < 10 µM | 
60 | Cc1[nH]nc(-c2cc(Cl)c(O)cc2O)c1-c1ccc2c(c1)OCCO2 [Example 109] |  | IC50 (Hsp90 IC50, activity class): < 10 µM
61 | Cc1ccc(O)c(-c2n[nH]c(C)c2-c2ccc3c(c2)OCCO3)c1 [Example 110] | > 10 µM | 
62 | Cc1[nH]nc(-c2ccc(S(N)(=O)=O)cc2)c1-c1ccc2c(c1)OCCO2 [Example 111] | > 10 µM | 
